# Biological target: T1, recombinant human KLK5 (Homo sapiens, UniProt Q9Y337)
# T1 construct: purchased Novoprotein or R&D Systems C415 or 1108-SE
# T1 sequence (Q9Y337 23-293): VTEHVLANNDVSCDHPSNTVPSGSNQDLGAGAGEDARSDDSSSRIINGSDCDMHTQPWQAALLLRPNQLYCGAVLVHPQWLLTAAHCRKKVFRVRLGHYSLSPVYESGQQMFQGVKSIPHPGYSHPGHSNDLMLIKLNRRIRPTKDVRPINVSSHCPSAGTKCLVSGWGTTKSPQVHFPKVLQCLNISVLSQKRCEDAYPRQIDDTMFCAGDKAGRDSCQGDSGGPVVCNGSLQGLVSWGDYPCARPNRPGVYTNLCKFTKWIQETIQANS
# Assay: Kallikrein (KLK) 5 enzymatic assay (Boc-VPR-AMC fluorogenic substrate)
# Format: biochemical
# Settings: recombinant human KLK5 0.1 μg/well, Boc-VPR-AMC 100 μM, pH 7.5, room temperature, 1% DMSO; tested a minimum of three times
# Summary of the method: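 Fluorogenic rate assay at pH 7.5 (0.1 M NaH2PO4, 1% DMSO, room temperature), run at least three times per compound. Compound was premixed with 0.1 μg/well recombinant human KLK5 before adding 100 μM Boc-VPR-AMC; AMC release was read at ex 380/em 460 nm, and IC50 derived from inhibition of rate vs DMSO control.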
row,Compound,IC50 [nM]
1,"CC(C)CCN1CC(n2nc3ccc(-c4ccc5ccnc(N)c5c4)cc3c2COc2ccccc2CC(=O)O)C1 [Compound 124b, 2-(2-((5-(1-aminoisoquinolin-7-yl)-2-(1-isopentylazetidin-3-yl)-2H-indazol-3-yl)methoxy)phenyl)acetic acid]",1000 to 10000
2,"CC(C)(C)OC(=O)N1CC(n2nc3ccc(-c4cccc5c(N)nccc45)cc3c2COc2ccccc2CC(=O)O)C1 [Compound 125b, 2-(2-((5-(1-aminoisoquinolin-5-yl)-2-(1-(tert-butoxycarbonyl)azetidin-3-yl)-2H-indazol-3-yl)methoxy)phenyl)acetic acid]",< 1000
3,"CCOC(=O)N1CC(n2nc3ccc(-c4cccc5c(N)nccc45)cc3c2COc2ccccc2CC(=O)O)C1 [Compound 126c, 2-(2-((5-(1-aminoisoquinolin-5-yl)-2-(1-(ethoxycarbonyl)azetidin-3-yl)-2H-indazol-3-yl)methoxy)phenyl)acetic acid]",1000 to 10000
4,"CCOC(=O)N1CC(n2nc3ccc(-c4ccc5ccnc(N)c5c4)cc3c2COc2ccccc2CC(=O)O)C1 [Compound 127b, 2-(2-((5-(1-aminoisoquinolin-7-yl)-2-(1-(ethoxycarbonyl)azetidin-3-yl)-2H-indazol-3-yl)methoxy)phenyl)acetic acid]",1000 to 10000
5,"CCC(=O)N1CC(n2nc3ccc(-c4ccc5ccnc(N)c5c4)cc3c2COc2ccccc2CC(=O)O)C1 [Compound 128c, 2-(2-((5-(1-aminoisoquinolin-7-yl)-2-(1-propionylazetidin-3-yl)-2H-indazol-3-yl)methoxy)phenyl)acetic acid]",1000 to 10000
6,"CCC(=O)N1CC(n2nc3ccc(-c4cccc5c(N)nccc45)cc3c2COc2ccccc2CC(=O)O)C1 [Compound 129b, 2-(2-((5-(1-aminoisoquinolin-5-yl)-2-(1-propionylazetidin-3-yl)-2H-indazol-3-yl)methoxy)phenyl)acetic acid]",1000 to 10000
7,"CCS(=O)(=O)N1CC(n2nc3ccc(-c4cccc5c(N)nccc45)cc3c2COc2ccccc2CC(=O)O)C1 [Compound 130c, 2-(2-((5-(1-aminoisoquinolin-5-yl)-2-(1-(ethylsulfonyl)azetidin-3-yl)-2H-indazol-3-yl)methoxy)phenyl)acetic acid]",< 1000
8,"CC(C)CCN1CCC(n2nc3ccc(-c4ccc5ccnc(N)c5c4)cc3c2COc2ccccc2CC(=O)O)CC1 [Compound 131h, 2-(2-((5-(1-aminoisoquinolin-7-yl)-2-(1-isopentylpiperidin-4-yl)-2H-indazol-3-yl)methoxy)phenyl)acetic acid]",< 1000
9,"CC(C)CCN1CCC(n2nc3ccc(-c4cccc5c(N)nccc45)cc3c2COc2ccccc2CC(=O)O)CC1 [Compound 132b, 2-(2-((5-(1-aminoisoquinolin-5-yl)-2-(1-isopentylpiperidin-4-yl)-2H-indazol-3-yl)methoxy)phenyl)acetic acid]",< 1000
10,"CCS(=O)(=O)N1CC(n2nc3ccc(-c4ccc5ccnc(N)c5c4)cc3c2COc2ccccc2CC(=O)O)C1 [Compound 133b, 2-(2-((5-(1-aminoisoquinolin-7-yl)-2-(1-(ethylsulfonyl)azetidin-3-yl)-2H-indazol-3-yl)methoxy)phenyl)acetic acid]",> 10000
11,"COCCN1CCC(n2nc3ccc(-c4cccc5c(N)nccc45)cc3c2COc2ccccc2CC(=O)O)CC1 [Compound 134c, 2-(2-((5-(1-aminoisoquinolin-5-yl)-2-(1-(2-methoxyethyl)piperidin-4-yl)-2H-indazol-3-yl)methoxy)phenyl)acetic acid]",< 1000
12,"CC(C)(C)OC(=O)NC1CC(n2nc3ccc(-c4cccc5c(N)nccc45)cc3c2COc2ccccc2CC(=O)O)C1 (centres unmarked) [Compound 135f, 2-(2-((5-(1-aminoisoquinolin-5-yl)-2-(3-(tert-butoxycarbonylamino)cyclobutyl)-2H-indazol-3-yl)methoxy)phenyl)acetic acid]",< 1000
13,"Nc1nccc2c(-c3ccc4nn(C5CC(N)C5)c(COc5ccccc5CC(=O)O)c4c3)cccc12 (centres unmarked) [Compound 136b, 2-(2-((2-(3-aminocyclobutyl)-5-(1-aminoisoquinolin-5-yl)-2H-indazol-3-yl)methoxy)phenyl)acetic acid]",1000 to 10000
14,"CC(C)(C)OC(=O)NC1CC(n2nc3ccc(-c4ccc5ccnc(N)c5c4)cc3c2COc2ccccc2CC(=O)O)C1 (centres unmarked) [Compound 137b, 2-(2-((5-(1-aminoisoquinolin-7-yl)-2-(3-(tert-butoxycarbonylamino)cyclobutyl)-2H-indazol-3-yl)methoxy)phenyl)acetic acid]",1000 to 10000
15,"Nc1nccc2ccc(-c3ccc4nn(C5CC(N)C5)c(COc5ccccc5CC(=O)O)c4c3)cc12 (centres unmarked) [Compound 138b, 2-(2-((2-(3-aminocyclobutyl)-5-(1-aminoisoquinolin-7-yl)-2H-indazol-3-yl)methoxy)phenyl)acetic acid]",1000 to 10000
16,"CC(C)(C)OC(=O)N1CC(Cn2nc3ccc(-c4cccc5c(N)nccc45)cc3c2COc2ccccc2CC(=O)O)C1 [Compound 139f, 2-(2-((5-(1-aminoisoquinolin-5-yl)-2-((1-(tert-butoxycarbonyl)azetidin-3-yl)methyl)-2H-indazol-3-yl)methoxy)phenyl)acetic acid]",< 1000
17,"Nc1nccc2c(-c3ccc4nn(CC5CNC5)c(COc5ccccc5CC(=O)O)c4c3)cccc12 [Compound 140b, 2-(2-((5-(1-aminoisoquinolin-5-yl)-2-(azetidin-3-ylmethyl)-2H-indazol-3-yl)methoxy)phenyl)acetic acid]",1000 to 10000
18,"CC(C)(C)OC(=O)N1CC(Cn2nc3ccc(-c4ccc5ccnc(N)c5c4)cc3c2COc2ccccc2CC(=O)O)C1 [Compound 141b, 2-(2-((5-(1-aminoisoquinolin-7-yl)-2-((1-(tert-butoxycarbonyl)azetidin-3-yl)methyl)-2H-indazol-3-yl)methoxy)phenyl)acetic acid]",1000 to 10000
19,"CC(C)(C)OC(=O)N1CC(n2nc(COc3ccccc3CC(=O)O)c3cc(-c4cccc5c(N)nccc45)ccc32)C1 [Compound 142b, 2-(2-((5-(1-aminoisoquinolin-5-yl)-1-(1-(tert-butoxycarbonyl)azetidin-3-yl)-1H-indazol-3-yl)methoxy)phenyl)acetic acid]",< 1000
20,"COCCN1CC(n2nc(COc3ccccc3CC(=O)O)c3cc(-c4cccc5c(N)nccc45)ccc32)C1 [Compound 143d, 2-(2-((5-(1-aminoisoquinolin-5-yl)-1-(1-(2-methoxyethyl)azetidin-3-yl)-1H-indazol-3-yl)methoxy)phenyl)acetic acid]",< 1000
21,"CC(C)CCN1CC(n2nc(COc3ccccc3CC(=O)O)c3cc(-c4cccc5c(N)nccc45)ccc32)C1 [Compound 144c, 2-(2-((5-(1-aminoisoquinolin-5-yl)-1-(1-isopentylazetidin-3-yl)-1H-indazol-3-yl)methoxy)phenyl)acetic acid]",< 1000
22,"COCCN1CC(n2nc(COc3ccccc3CC(=O)O)c3cc(-c4ccc5ccnc(N)c5c4)ccc32)C1 [Compound 145b, 2-(2-((5-(1-aminoisoquinolin-7-yl)-1-(1-(2-methoxyethyl)azetidin-3-yl)-1H-indazol-3-yl)methoxy)phenyl)acetic acid]",< 1000
23,"CC(C)CCN1CC(n2nc(COc3ccccc3CC(=O)O)c3cc(-c4ccc5ccnc(N)c5c4)ccc32)C1 [Compound 146b, 2-(2-((5-(1-aminoisoquinolin-7-yl)-1-(1-isopentylazetidin-3-yl)-1H-indazol-3-yl)methoxy)phenyl)acetic acid]",< 1000
24,"Nc1nccc2c(-c3ccc4c(c3)c(COc3ccccc3CC(=O)O)nn4C3CN(CCO)C3)cccc12 [Compound 147c, 2-(2-((5-(1-aminoisoquinolin-5-yl)-1-(1-(2-hydroxyethyl)azetidin-3-yl)-1H-indazol-3-yl)methoxy)phenyl)acetic acid]",< 1000
25,"Nc1nccc2ccc(-c3ccc4c(c3)c(COc3ccccc3CC(=O)O)nn4C3CN(CCO)C3)cc12 [Compound 148b, 2-(2-((5-(1-aminoisoquinolin-7-yl)-1-(1-(2-hydroxyethyl)azetidin-3-yl)-1H-indazol-3-yl)methoxy)phenyl)acetic acid]",< 1000
26,"Nc1nccc2ccc(-c3ccc4nn(C5CCC5)c(COc5cc(F)ccc5CC(=O)O)c4c3)cc12 [Compound 149d, 2-(2-((5-(1-aminoisoquinolin-7-yl)-2-cyclobutyl-2H-indazol-3-yl)methoxy)-4-fluorophenyl)acetic acid]",1000 to 10000
27,"Nc1nccc2c(-c3ccc4nn(C5CCC5)c(COc5cc(F)ccc5CC(=O)O)c4c3)cccc12 [Compound 150b, 2-(2-((5-(1-aminoisoquinolin-5-yl)-2-cyclobutyl-2H-indazol-3-yl)methoxy)-4-fluorophenyl)acetic acid]",< 1000
28,"Nc1nccc2ccc(-c3ccc4nn(C5CCC5)c(COc5cc(C(F)(F)F)ccc5CC(=O)O)c4c3)cc12 [Compound 151d, 2-(2-((5-(1-aminoisoquinolin-7-yl)-2-cyclobutyl-2H-indazol-3-yl)methoxy)-4-(trifluoromethyl)phenyl)acetic acid]",> 10000
29,"Nc1nccc2c(-c3ccc4nn(C5CCC5)c(COc5cc(C(F)(F)F)ccc5CC(=O)O)c4c3)cccc12 [Compound 152b, 2-(2-((5-(1-aminoisoquinolin-5-yl)-2-cyclobutyl-2H-indazol-3-yl)methoxy)-4-(trifluoromethyl)phenyl)acetic acid]",1000 to 10000

# Reference: patent publication US20240239752A1, “BICYCLIC HETEROAROMATIC INHIBITORS OF KLK5” (BioCryst Pharmaceuticals, Inc., priority 2021, published 2024)
